The supplement of paper PMC9663587

Legend:
[1] = compound: COc1ccc2c(c1)[C@]1(C[C@H]1c1ccc3c(/C=C/c4ccc(CN5C[C@@H](C)O[C@@H](C)C5)cc4)n[nH]c3c1)C(=O)N2
THZ531 = compound: CN(C)C/C=C/C(=O)Nc1ccc(C(=O)N2CCC[C@@H](Nc3ncc(Cl)c(-c4c[nH]c5ccccc45)n3)C2)cc1 [THZ531]
THZ1 = compound: CN(C)C/C=C/C(=O)Nc1ccc(C(=O)Nc2cccc(Nc3ncc(Cl)c(-c4c[nH]c5ccccc45)n3)c2)cc1 [THZ1]
Torin2 = compound: C1=CC(=CC(=C1)N2C(=O)C=CC3=CN=C4C=CC(=CC4=C32)C5=CN=C(C=C5)N)C(F)(F)F [Torin2]
[2] = compound: CC(=O)c1c(C)c2cnc(Nc3ccc(N4CCNCC4)cn3)nc2n(C2CCCC2)c1=O
TGX221 = compound: CC1=CN2C(=O)C=C(N=C2C(=C1)C(C)NC3=CC=CC=C3)N4CCOCC4 [TGX221]
Taselisib/GDC0032 = compound: Cc1nc(-c2cn3c(n2)-c2ccc(-c4cnn(C(C)(C)C(N)=O)c4)cc2OCC3)n(C(C)C)n1 [Taselisib/GDC0032]
Buparlisib/NVP-BKM120 = compound: Nc1cc(C(F)(F)F)c(-c2cc(N3CCOCC3)nc(N3CCOCC3)n2)cn1 [Buparlisib/NVP-BKM120]
AZD2014 = compound: CNC(=O)c1cccc(-c2ccc3c(N4CCOC[C@@H]4C)nc(N4CCOC[C@@H]4C)nc3n2)c1 [AZD2014]
AZD7762 = compound: NC(=O)Nc1cc(-c2cccc(F)c2)sc1C(=O)N[C@H]1CCCNC1 [AZD7762]
Saracatinib/AZD0530 = compound: CN1CCN(CCOc2cc(OC3CCOCC3)c3c(Nc4c(Cl)ccc5c4OCO5)ncnc3c2)CC1 [Saracatinib/AZD0530]
Olaparib/AZD2281 = compound: O=C(c1cc(Cc2n[nH]c(=O)c3ccccc23)ccc1F)N1CCN(C(=O)C2CC2)CC1 [Olaparib/AZD2281]
Cediranib/AZD2171 = compound: COc1cc2c(Oc3ccc4[nH]c(C)cc4c3F)ncnc2cc1OCCCN1CCCC1 [Cediranib/AZD2171]
Vorinostat = compound: O=C(CCCCCCC(=O)Nc1ccccc1)NO [Vorinostat]
ABT-737 = compound: CN(C)CC[C@H](CSc1ccccc1)Nc1ccc(S(=O)(=O)NC(=O)c2ccc(N3CCN(Cc4ccccc4-c4ccc(Cl)cc4)CC3)cc2)cc1[N+](=O)[O-] [ABT-737]
BSJ-01-175 = compound: CN(C)C/C=C/C(=O)Nc1ccc(O[C@@H]2CCC[C@@H](Nc3ncc(Cl)c(-c4c[nH]c5ccccc45)n3)C2)cc1 [BSJ-01-175]
AZD1775 = compound: C=CCn1c(=O)c2cnc(Nc3ccc(N4CCN(C)CC4)cc3)nc2n1-c1cccc(C(C)(C)O)n1 [AZD1775]
Rucaparib = compound: CNCc1ccc(-c2[nH]c3cc(F)cc4c3c2CCNC4=O)cc1 [Rucaparib]
Alpelisib/BYL719 = compound: Cc1nc(NC(=O)N2CCC[C@H]2C(N)=O)sc1-c1ccnc(C(C)(C)C(F)(F)F)c1 [Alpelisib/BYL719]
[3] = compound: CC(=O)Nc1cccc(-n2c(=O)n(C3CC3)c(=O)c3c(Nc4ccc(I)cc4F)n(C)c(=O)c(C)c32)c1
Ipatasertib/GDC0068 = compound: CC(C)NC[C@@H](C(=O)N1CCN(c2ncnc3c2[C@H](C)C[C@H]3O)CC1)c1ccc(Cl)cc1 [Ipatasertib/GDC0068]
INK128/MLN0128 = compound: CC(C)n1nc(-c2ccc3oc(N)nc3c2)c2c(N)ncnc21 [INK128/MLN0128]
SHP099 = compound: CC1(CCN(CC1)C2=CN=C(C(=N2)N)C3=C(C(=CC=C3)Cl)Cl)N [SHP099]
AZD6738 = compound: C[C@@H]1COCCN1c1cc(C2([S@](C)(=N)=O)CC2)nc(-c2cc[nH]c3nccc2-3)n1 [AZD6738]
Dasatinib = compound: Cc1nc(Nc2ncc(C(=O)Nc3c(C)cccc3Cl)s2)cc(N2CCN(CCO)CC2)n1 [Dasatinib]
[4] = compound: CCCCOc1c(C(=O)c2c(F)cc(C)cc2F)c[nH]c2nncc1-2
Tivantinib/ARQ197 = compound: O=C1NC(=O)[C@@H](c2cn3c4c(cccc24)CCC3)[C@@H]1c1c[nH]c2ccccc12 [Tivantinib/ARQ197]
THZ-P1-2 = compound: CN(C)C/C=C/C(=O)NC1=CC=C(C=C1)C(=O)NC2=CC=CC(=C2)NC3=NC=NC(=C3)C4=CNC5=CC=CC=C54 [THZ-P1-2]
Cabozantinib = compound: COc1cc2nccc(Oc3ccc(NC(=O)C4(C(=O)Nc5ccc(F)cc5)CC4)cc3)c2cc1OC [Cabozantinib]
Luminespib/NVP-AUY922 = compound: CCNC(=O)c1noc(-c2cc(C(C)C)c(O)cc2O)c1-c1ccc(CN2CCOCC2)cc1 [Luminespib/NVP-AUY922]
[5] = compound: CCN1CCN(Cc2ccc(Nc3ncc(F)c(-c4cc(F)c5nc(C)n(C(C)C)c5c4)n3)nc2)CC1
Volasertib/BI6727 = compound: CC[C@@H]1C(=O)N(C)c2cnc(Nc3ccc(C(=O)N[C@H]4CC[C@H](N5CCN(CC6CC6)CC5)CC4)cc3OC)nc2N1C(C)C [Volasertib/BI6727]
[6] = compound: CNc1nc(-c2ccc3c(N)n[nH]c3c2)cc(N2C[C@@H](C(=O)NC3CCCCC3)CC[C@H]2C)n1
senexin b = compound: CN1CCN(C(=O)c2ccc3cc(CCNc4ncnc5ccc(C#N)cc45)ccc3c2)CC1 [senexin b]
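Also: breast cancer and non-malignant breast epithelial cell lines, Deep Dye Drop or Dye Drop imaging, nine half-log doses, GR normalized to time-zero plates and DMSO-only controls.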

Cell Line	GR50, 72 h [1] [µM]	GR50, 72 h (THZ531) [µM]	GR50, 72 h (THZ1) [µM]	GR50, 72 h (Torin2) [µM]	GR50, 72 h [2] [µM]	GR50, 72 h (TGX221) [µM]	GR50, 72 h (Taselisib/GDC0032) [µM]	GR50, 72 h (Buparlisib/NVP-BKM120) [µM]	GR50, 72 h (AZD2014) [µM]	GR50, 72 h (AZD7762) [µM]	GR50, 72 h (Saracatinib/AZD0530) [µM]	GR50, 72 h (Olaparib/AZD2281) [µM]	GR50, 72 h (Cediranib/AZD2171) [µM]	GR50, 72 h (Vorinostat) [µM]	GR50, 72 h (ABT-737) [µM]	GR50, 72 h (BSJ-01-175) [µM]	GR50, 72 h (AZD1775) [µM]	GR50, 72 h (Rucaparib) [µM]	GR50, 72 h (Alpelisib/BYL719) [µM]	GR50, 72 h [3] [µM]	GR50, 72 h (Ipatasertib/GDC0068) [µM]	GR50, 72 h (INK128/MLN0128) [µM]	GR50, 72 h (SHP099) [µM]	GR50, 72 h (AZD6738) [µM]	GR50, 72 h (Dasatinib) [µM]	GR50, 72 h [4] [µM]	GR50, 72 h (Tivantinib/ARQ197) [µM]	GR50, 72 h (THZ-P1-2) [µM]	GR50, 72 h (Cabozantinib) [µM]	GR50, 72 h (Luminespib/NVP-AUY922) [µM]	GR50, 72 h [5] [µM]	GR50, 72 h (Volasertib/BI6727) [µM]	GR50, 72 h [6] [µM]	GR50, 72 h (senexin b) [µM]
HCC1806	0.00322	0.407	0.0688	0.0358	> 3.16	> 10	1.55	1.05	1.82	0.0166	1.73	> 10	4.93	1.13	> 10	0.092	0.0128	> 10	> 10	> 1	> 10	0.0524	> 10	1.1	0.0537	0.278	0.272	4.69	> 10	0.0109	0.554	0.0028	> 10	> 10
ZR751	0.0085	0.427	0.428	0.0172	> 3.16	0.371	0.277	1.15	< 0.001	2.29	3.66	> 10	> 10	3.55	> 10	3.46	6.23	> 10	> 10	0.0293	> 10	0.00782	> 10	> 10	0.0343	> 10	0.657	8.94	> 10	0.0228	0.0666	0.115	5.91	> 10
MDAMB175VII	0.00391	0.0409	0.0271	0.0022	0.00212	> 10	0.00272	0.102	< 0.001	0.0769	0.0646	9.32	4.54	0.546	4.58	0.00586	0.0486	> 10	0.154	0.00195	0.22	0.00349	2.47	8.53	0.0162	0.00153	0.267	3.1	7.74	0.00398	0.00292	0.0114	0.0785	0.387
EVSAT	0.00784	0.124	0.0571	0.015	> 3.16	1.39	0.517	1.04	0.00617	1.42	2.69	> 10	9.9	2.5	> 10	0.146	3.96	> 10	> 10	> 1	0.256	0.0112	> 10	> 10	0.166	1.45	0.373	> 10	> 10	0.00716	1.25	0.00932	1.77	> 10
BT20	0.00274	> 1	0.499	0.0089	0.0435	> 10	0.0181	0.638	0.146	1.1	4.37	> 10	5.69	2.22	> 10	0.0388	1.9	> 10	2.03	> 1	0.645	0.0129	> 10	5.85	0.68	0.002	0.473	6.01	5.35	0.00597	0.0613	0.00563	> 10	2.3
HS578T	0.00238	0.0496	0.0183	0.0071	0.156	> 10	0.575	0.687	0.0683	0.0151	4.04	8.91	0.551	0.904	> 10	0.0056	0.0155	> 10	> 10	0.00636	4.59	0.00906	> 10	5.26	0.0386	0.0165	0.337	> 10	6.38	0.0033	0.0776	0.00257	> 10	> 10
